Series [1] in a line: Body weight of treated RSFFV-infected C3H mice (toxicity). In kind it is in vivo. The protocol: (§1) Three groups of two month old C3H mice, each comprising four animals were provided as one control and two test groups, wherein, the three-groups (I-III) were subjected to an infectious dose of RSFFV on day one. The first group (I) served as control and received no treatment. Group II and III were treated with […] total body weight concentration of the drug Foscarnet and the test compound MTL J-1, respectively which was administered each day for days 5 through 9. The animals were sacrificed on day 14, where upon the spleens where removed and weighed.
(§2) The tests were redone with a second control group (IA) having no infection of RSFFV and receiving no treatment with any drug, wherein groups I and IA comprise four mice each, and groups II and III comprise five mice each, providing the results summarized below: […]

For series [2], the system named is RSFFV (Raucher Spleen Focus Forming Virus). Put plainly: Treatment of C3H mice infected with Raucher Spleen Focus Forming Virus: spleen weight. In kind it is in vivo. The protocol:
The effectiveness of MTL J-1 was tested in C3H mice against the virus RSFFV (Raucher Spleen Focus Forming Virus) which is a retrovirus and is a valid animal model for HIV infection by application to the above identified mice according to the following procedure:
as §1, §2

The mark [3] stands for this setting: first test (Table 1), RSFFV on day one, 10 μM total body weight concentration each day for days 5 through 9, sacrificed day 14.
[4] abbreviates: repeat test (Table 2) with a second, uninfected control group IA, same treatment.
The mark [5] stands for this setting: RSFFV-infected C3H mice, 10 μM total body weight concentration, days 5 through 9.

Turning to phosphonoformate [Foscarnet], the “Ending Weight” value amounted to 21.2 grams in series [1] (setting [3]) and 19.6 grams in series [1] (setting [4]). Besides, the Weight change is on record as 0.15 grams in series [1] (setting [3]) and “+1.6 grams” in series [1] (setting [4]). In addition, the “Spleen weight Normalized” value in series [2] (setting [3]) is “.079 grams”; in series [2] (setting [4]), 0.061 grams.

For “5-phosphonoformate-1,5-di-(p-N-2-(N-(4-aminobutyl)-N-ethylisoluminol)-N-ethylaminophenyl)-1,5-bis-(p-N,N-dimethylaniline)-1,3-pentadiene [MTL J-1]”, the “Toxicity, as demonstrated by an absence of weight loss” value in series [1] (setting [5]) is “nontoxic”. Moreover, in series [1] (mouse, in vivo), the “Ending Weight” value stood at 19.2 grams and the Weight change entry is on record as “+1.5 grams”. The “Effectiveness, as demonstrated by the absence of splenomegaly” value in series [2] (setting [5]) is “highly effective”. The “Spleen weight Normalized” value in series [2] (setting [3]) is given as “.068 grams”. For the same substance, in series [2] (setting [4]), the “Spleen weight Normalized” value is 0.049 grams.

The values above are taken from patent US6555663B1, “Prodrugs for selective drug delivery” (priority 1986, dated 2003).
